Data: patent US7998979B2, “Antibacterial quinoline derivatives” (Janssen Pharmaceutical N.V., priority 2006, dated 2011)
Values after ≈ are worked out from the molar mass of the structure shown.

Columns and labels:
[1] = test system: Staphylococcus aureus (ATCC29213); assay: IC90 determination, microtitre plate assay, STA 29213; format: cell-based; conditions: 90% inhibitory concentration for bacterial growth, 37° C.; for IC90 (μg/ml) STA B29213: 24 hours; for IC90: Staphylococcus aureus, ATCC29213, 24 h, read-out: IC90 (μg/ml) STA B29213
Method: (§1) D.3. In-Vitro Method for Testing Compounds for Anti-Bacterial Activity Against Various Non-Mycobacterial Strains
(§2) Preparation of Bacterial Suspensions for Susceptibility Testing:
(§3) The bacteria used in this study were grown overnight in flasks containing 100 ml Mueller-Hinton Broth (Becton Dickinson—cat. no. 275730) in sterile de-ionized water, with shaking, at 37° C. Stocks (0.5 ml/tube) were stored at −70° C. until use. Bacteria titrations were performed in microtiter plates to detect the TCID50, in which the TCID50 represents the dilution that gives rise to bacterial growth in 50% of inoculated cultures.
(§4) In general, an inoculum level of approximately 100 TCID50 was used for susceptibility testing.
(§5) Anti Bacterial Susceptibility Testing: IC90 Determination
(§6) Flat-bottom, sterile 96-well plastic microtiter plates were filled with 180 μl of sterile deionized water, supplemented with 0.25% BSA. Subsequently, stock solutions (7.8×final test concentration) of compounds were added in 45 μl volumes in column 2 Serial five-fold dilutions (45 μl in 180 μl) were made directly in the microtiter plates from column 2 to reach column 11. Untreated control samples with (column 1) and without (column 12) inoculum were included in each microtiter plate. Depending on the bacteria type, approximately 10 to 60 CFU per well of bacteria inoculum (100 TCID50), in a volume of 100 μl in 2.8×Mueller-Hinton broth medium, was added to the rows A to H, except column 12. The same volume of broth medium without inoculum was added to column 12 in row A to H. The cultures were incubated at 37° C. for 24 hours under a normal atmosphere (incubator with open air valve and continuous ventilation). At the end of incubation, one day after inoculation, the bacterial growth was quantitated fluorometrically. Therefore resazurin (0.6 mg/ml) was added in a volume of 20 μl to all wells 3 hours after inoculation, and the plates were re-incubated overnight. A change in colour from blue to pink indicated the growth of bacteria. The fluorescence was read in a computer-controlled fluorometer (Cytofluor Biosearch) at an excitation wavelength of 530 nm and an emission wavelength of 590 nm. The % growth inhibition achieved by the compounds was calculated according to standard methods.

[2] = test system: Streptococcus pneumoniae (ATCC6305); assay: IC90 determination, microtitre plate assay, SPN 6305; format: cell-based; conditions: 90% inhibitory concentration for bacterial growth, 37° C.; for IC90 (μg/ml) SPN 6305: 24 hours; for IC90: Streptococcus pneumoniae, ATCC6305, 24 h, read-out: IC90 (μg/ml) SPN 6305
Method: as §1, §2, §3, §4, §5, §6

[3] = test system: M. Smegmatis (ATCC607); assay: In-vitro anti-bacterial activity against strain M. Smegmatis ATCC607; format: cell-based; conditions: 90% inhibitory concentration for bacterial growth, 37° C.; for IC90 (μg/ml) MSM 607: 48 hours; for IC90: Mycolicibacterium smegmatis, ATCC607, 48 h, read-out: IC90 (μg/ml) MSM 607
Method: D.2. In-Vitro Method for Testing Compounds for Anti-Bacterial Activity Against Strain M. Smegmatis ATCC607
Flat-bottom, sterile 96-well plastic microtiter plates were filled with 180 μl of sterile deionized water, supplemented with 0.25% BSA. Subsequently, stock solutions (7.8×final test concentration) of compounds were added in 45 μl volumes to a series of duplicate wells in column 2 so as to allow evaluation of their effects on bacterial growth. Serial five-fold dilutions (45 μl in 180 μl) were made directly in the microtiter plates from column 2 to 11 using a customised robot system (Zymark Corp., Hopkinton, Mass.). Pipette tips were changed after every 3 dilutions to minimize pipetting errors with high hydrophobic compounds. Untreated control samples with (column 1) and without (column 12) inoculum were included in each microtiter plate. Approximately 250 CFU per well of bacteria inoculum, in a volume of 100 μl in 2.8×Mueller-Hinton broth medium, was added to the rows A to H, except column 12. The same volume of broth medium without inoculum was added to column 12 in row A to H. The cultures were incubated at 37° C. for 48 hours in a humidified 5% CO2 atmosphere (incubator with open air valve and continuous ventilation). At the end of incubation, two days after inoculation, the bacterial growth was quantitated fluorometrically. Therefore Alamar Blue (10×) was added to all wells in a volume of 20 μl and plates were incubated for another 2 hours at […]
The fluorescence was read in a computer-controlled fluorometer (Cytofluor, Biosearch) at an excitation wavelength of 530 nm and an emission wavelength of 590 nm (gain 30).

[4] = test system: Pseudomonas aeruginosa (ATCC27853); assay: IC90 determination, microtitre plate assay, PAE 27853; format: cell-based; conditions: 90% inhibitory concentration for bacterial growth, 24 hours, 37° C., read-out: IC90 (μg/ml) PAE 27853
Method: as §1, §2, §3, §4, §5
(§7) Flat-bottom, sterile 96-well plastic microtiter plates were filled with 180 μl of sterile deionized water, supplemented with 0.25% BSA. […] At the end of incubation, one day after inoculation, the bacterial growth was quantitated fluorometrically. […] The fluorescence was read in a computer-controlled fluorometer (Cytofluor Biosearch) at an excitation wavelength of 530 nm and an emission wavelength of 590 nm. The % growth inhibition achieved by the compounds was calculated according to standard methods.

[5] = test system: Enterococcus faecalis (ATCC29212); assay: IC90 determination, microtitre plate assay, EFA 29212; format: cell-based; conditions: 90% inhibitory concentration for bacterial growth, 24 hours, 37° C., read-out: IC90 (μg/ml) EFA 29212
Method: as §1, §2, §3, §4, §5, §7

[6] = test system: Streptococcus pyogens (ATCC8668); assay: IC90 determination, microtitre plate assay, SPY 8668; format: cell-based; conditions: 90% inhibitory concentration for bacterial growth, 24 hours, 37° C., read-out: IC90 (μg/ml) SPY 8668
Method: as §1, §2, §3, §4, §5, §7

[7] = test system: methicilline resistant Staphylococcus aureus (MRSA) (a clinical isolate from the University of Antwerp); assay: IC90 determination, microtitre plate assay, STA RMETH; format: cell-based; conditions: 90% inhibitory concentration for bacterial growth, 37° C.; for IC90: Staphylococcus aureus, MRSA, 24 h, read-out: IC90 (μg/ml) STA RMETHIC
Method: as §1, §2, §3, §4, §5
as §6, with “Therefore resazurin (0.6 mg/ml) was added in a volume of 20 μl to all wells 3 hours after inoculation, and the plates were re-incubated overnight. A change in colour from blue to pink indicated the growth of bacteria.” left out

[8] = test system: Escherichia coli (ATCC35218); assay: IC90 determination, microtitre plate assay, ECO 35218; format: cell-based; conditions: 90% inhibitory concentration for bacterial growth, 24 hours, 37° C., read-out: IC90 (μg/ml) ECO 35218
Method: as §1, §2, §3, §4, §5, §7

SMILES | IC90 (μg/ml) STA B29213 [1] [µg/mL] | IC90 (μg/ml) SPN 6305 [2] [µg/mL] | melting point [°C] | IC90 [1] [µg/mL] | IC90 (μg/ml) MSM 607 [3] [µg/mL] | IC90 [3] [µg/mL] | further results
CCN(CC)CCCSCC(O)(c1ccccc1)C(c1ccccc1)c1cc2cc(Br)ccc2nc1OC (single isomer, unassigned) [Compound 7] | 9.41 (≈ 15.9 µM) | 2.65 (≈ 4.46 µM) | 104 |  | 1.88 (≈ 3.17 µM) |  | 
COc1nc2ccc(Br)cc2cc1C(c1ccccc1)C(O)(CSCCN(C)C)c1ccccc1 (single isomer, unassigned) [Compound 2] | 21.96 (≈ 39.8 µM) | 8.74 (≈ 15.8 µM) |  |  | 2.46 (≈ 4.46 µM) |  | 
COc1nc2ccc(Br)cc2cc1C(c1ccccc1)C(O)(CSCCCN1CCCCC1)c1ccccc1 (single isomer, unassigned) [Compound 9] | 60.56 (≈ 100 µM) | 60.56 (≈ 100 µM) | 158 |  | 48.11 (≈ 79.4 µM) |  | 
COc1nc2ccc(Br)cc2cc1C(c1ccccc1)C(O)(CSCCCN(C)C)c1ccccc1 (single isomer, unassigned) [Compound 3] | 6.35 (≈ 11.2 µM) | 2.01 (≈ 3.55 µM) |  |  | 1.79 (≈ 3.16 µM) |  | IC90 [4]: 11.3 µg/mL (≈ 19.9 µM); IC90 [5]: 11.3 µg/mL (≈ 19.9 µM); IC90 [6]: 7.99 µg/mL (≈ 14.1 µM); IC90 [7]: 11.3 µg/mL (≈ 19.9 µM); IC90 [8]: 14.2 µg/mL (≈ 25.1 µM)
COc1nc2ccc(Br)cc2cc1C(c1ccccc1)C(O)(CSCCCN(C)C)c1ccccc1 (single isomer, unassigned) [Compound 4] |  | 10.06 (≈ 17.8 µM) | 136 | 7.99 (≈ 14.1 µM) |  | 2.01 (≈ 3.55 µM) | 
COc1nc2ccc(Br)cc2cc1C(c1ccccc1)C(O)(CSCCN(C)C)c1ccccc1 (single isomer, unassigned) [Compound 1] | 8.74 (≈ 15.8 µM) |  | 175 |  | 6.94 (≈ 12.6 µM) |  | IC90 [4]: 22 µg/mL (≈ 39.8 µM); IC90 [5]: 19.6 µg/mL (≈ 35.5 µM); IC90 [6]: 49.2 µg/mL (≈ 89.1 µM); IC90 [2]: 4.92 µg/mL (≈ 8.92 µM); IC90 [8]: 55.2 µg/mL (≈ 100 µM)
CCN(CC)CCSCC(O)(c1ccccc1)C(c1ccccc1)c1cc2cc(Br)ccc2nc1OC (single isomer, unassigned) [Compound 6] | 51.66 (≈ 89.1 µM) | 23.07 (≈ 39.8 µM) | 148 |  | 10.31 (≈ 17.8 µM) |  | 
CCN(CC)CCCSCC(O)(c1ccccc1)C(c1ccccc1)c1cc2cc(Br)ccc2nc1OC (single isomer, unassigned) [Compound 8] | 1.88 (≈ 3.17 µM) |  |  |  |  | 1.88 (≈ 3.17 µM) | IC90 [2]: 2.36 µg/mL (≈ 3.98 µM)
CCN(CC)CCSCC(O)(c1ccccc1)C(c1ccccc1)c1cc2cc(Br)ccc2nc1OC (single isomer, unassigned) [Compound 5] |  | 2.31 (≈ 3.99 µM) |  | 58 (≈ 100 µM) | 2.06 (≈ 3.55 µM) |  | 

Second part, led by results:

IC90 (μg/ml) STA B29213 [1] [µg/mL] | IC90 (μg/ml) SPN 6305 [2] [µg/mL] | melting point [°C] | IC90 [1] [µg/mL] | SMILES | IC90 (μg/ml) MSM 607 [3] [µg/mL] | IC90 [3] [µg/mL] | further results
54.85 (≈ 100 µM) |  |  |  | COc1nc2ccc(Br)cc2cc1C(c1ccccc1)C(O)(CN(C)CCN(C)C)c1ccccc1 (single isomer, unassigned) [Compound 14] | 8.69 (≈ 15.8 µM) |  | 
 |  | 128 | 43.6 (≈ 79.4 µM) | COc1nc2ccc(Br)cc2cc1C(c1ccccc1)C(O)(CN(C)CCN(C)C)c1ccccc1 (single isomer, unassigned) [Compound 13] |  | 8.69 (≈ 15.8 µM) | 
 |  |  | 4.39 (≈ 7.07 µM) | COc1nc2ccc(Br)cc2cc1C(c1ccccc1)C(O)(CSCCCN1CCN(C)CC1)c1ccccc1 (single isomer, unassigned) [Compound 12] |  | 2.2 (≈ 3.54 µM) | IC90 [2]: 2.2 µg/mL (≈ 3.54 µM); IC90 [7]: 13.9 µg/mL (≈ 22.4 µM)
4.81 (≈ 7.94 µM) | 2.15 (≈ 3.55 µM) |  |  | COc1nc2ccc(Br)cc2cc1C(c1ccccc1)C(O)(CSCCCN1CCCCC1)c1ccccc1 (single isomer, unassigned) [Compound 10] | 1.92 (≈ 3.17 µM) |  | 
4.93 (≈ 7.94 µM) | 1.96 (≈ 3.16 µM) | 136 |  | COc1nc2ccc(Br)cc2cc1C(c1ccccc1)C(O)(CSCCCN1CCN(C)CC1)c1ccccc1 (single isomer, unassigned) [Compound 11] | 1.96 (≈ 3.16 µM) |  | IC90 (μg/ml) STA RMETHIC ([7]; 24 hours): 12.38 µg/mL (≈ 19.9 µM)
62.46 (≈ 100 µM) | 62.46 (≈ 100 µM) |  |  | COc1nc2ccc(Br)cc2cc1C(c1ccccc1)C(O)(CN(CCN(C)C)Cc1ccccc1)c1ccccc1 (stereo not shown) [Compound 15] | 62.46 (≈ 100 µM) |  | 
 |  |  | 62.5 (≈ 100 µM) | COc1nc2ccc(Br)cc2cc1C(c1ccccc1)C(O)(CN(CCN(C)C)Cc1ccccc1)c1ccccc1 (stereo not shown) [Compound 16] |  | 55.7 (≈ 89.1 µM) | IC90 [2]: 62.5 µg/mL (≈ 100 µM)
